One block for each molecule: values may come before it.
Tests used:
5α-reductase [1] = assay: Inhibition of 5α-reductase, enzymatic assay (NADPH absorbance at 340 nm), in vitro; type: biochemical; settings: for % inhibition: mean±SEM, 5 assays
Protocol: Principle and implementation of the test (adapted from Zy and Zu, 1998):
Testosterone is irreversibly metabolized by 5α-reductase to […] (5-DHT) in the presence of the cofactor NADPH. The reaction is monitored, at 37° C., by determining, using a spectrophotometer, the reduction in the absorbance of the reaction medium at 340 nm, due to the conversion of NADPH to NADP.
The test thus consists in mixing testosterone, NADPH and the test product or its vehicle alone (control reaction). After 3 minutes to allow the system to equilibrate, the baseline absorbance of the system is determined. Then the reaction is triggered by addition of the enzyme, 5α-reductase. After 10 minutes, a second determination of the absorbance, final absorbance, is conducted. The difference between the two measurements reflects the quantity of NADPH consumed. That quantity is proportional to the quantity of testosterone converted to 5-DHT.

5α-reductase [2] = assay: Inhibition of 5α-reductase, HPLC determination of testosterone, in vitro; type: biochemical; settings: for % inhibition: mean±SEM, 5 assays
Protocol: Principle and implementation of the test: the aim of this test was to confirm the previous result but using an HPLC analysis method. Unlike 5-DHT, testosterone absorbs light at the wavelength used (245 nm). The decrease in testosterone peak area (which was characterized under our operating conditions by a retention time of 26 minutes) reflects the reduction of the concentration of the compound in the study medium and thus reflects 5α-reductase activity.
The same type of protocol as in the previous example was used, but instead of determining the absorbances, the reaction media were analyzed by HPLC.

[3] = tested on: interleukin 6 (IL-6) on normal human fibroblasts (HF); assay: Anti-inflammatory effect: IL-6 (ELISA) in normal human fibroblasts after UV-B irradiation; type: cell-based; settings: for HF % change (IL-6 vs. tests without UV exposure): UV-B 50 mJ.cm^−2, 24 hours
Protocol: (§1) Principle and test implementation: it is possible to estimate a degree of inflammation by determining the quantity of mediators such as prostaglandins, leukotrienes or interleukins. In this example, we selected assay of interleukin 6 (IL-6) on normal human fibroblasts (HF) and keratinocytes (HK) in culture following exposure to UV-B irradiation. Broadly speaking, the cells were cultured in a conventional culture medium (DMEMc+10% FCS) for periods of 24 hours for HF and 1 week for HK. After elimination of the buffer and 2 successive washings with phosphate buffer solution, the cells were exposed to UV-B irradiation at a standardized energy level of 50 mJ.cm^−2. The buffer was then rapidly eliminated and replaced by the same culture medium as that used at the start of the experiment, but containing the test extracts at the prerequisite concentrations or DMSO for the control series. After 24 hours, the culture medium was harvested and IL-6 concentration determined using a standard ELISA method. An additional series was conducted using the same protocol but without UV-B irradiation in order to determine the baseline level and control the stability of the study system. All the assays were conducted in triplicate.

[4] = tested on: interleukin 6 (IL-6) on normal human keratinocytes (HK); assay: Anti-inflammatory effect: IL-6 (ELISA) in normal human keratinocytes after UV-B irradiation; type: cell-based; settings: for HK % change (IL-6 vs. tests without UV exposure): UV-B 50 mJ.cm^−2, 24 hours
Protocol: as §1

[5] = tested on: normal human keratinocytes (HK); assay: Antiproliferative effect on keratinocytes (DNA quantity, Hoechst 33258); type: cell-based; settings: for % inhibition (quantity of DNA, number of cells): 1 week culture
Description: Test principle and implementation: since the quantity of DNA is constant for each cell, the determination of the overall quantity of DNA is equivalent to measuring the number of cells used for the determination. This principle enables routine use of more refined but very cumbersome methodologies to be avoided. Various methods have been developed on the basis of this protocol, of which, in particular, that used herein. When bound to DNA with a constant and known stereochemistry, the fluorophore, Hoechst 33258, presents, first, increased fluorescence, but also an emission spectrum shift from 492 to 458 nm. By means of comparison with pre-established sets of standards, the concomitant monitoring of the above 2 parameters enables quantification of the quantity of DNA present in the cell samples studied. Broadly speaking, normal human keratinocytes (HK) are cultured in a classic culture medium (DMEMc+10% FCS) for 1 week, in the absence of the test product (control series in order to determine the baseline cell proliferation of the system studied) or in the presence of the test products alone or in combination. Fluorophore Hoechst 33258 was added at the end of the protocol before withdrawing cell aliquots for assay. The assays were conducted in triplicate as 3 mutually independent assays.

Staphylococcus hominis = assay: Antibacterial effect, agar incorporation, strain B; type: cell-based; design: key to bacterial growth, strain B: ‘+’ = bacterial growth; ‘−’ = no bacterial growth; settings: for bacterial growth, strain B: 24 h (same at 48 h), equivalent to 5% premix
Protocol: (§2) Test Principle and Implementation: 1 mL of the premix in example No. 1 or its constituents at concentrations equivalent to 5% of the premix were incorporated in molten agar medium (BioMérieux) plated in a Petri dish. […] The plates were then incubated at 37° C. for 24 and 48 hours and inspected visually. Five strains, Corynebacterium minutissimum, Propionibacterium acnes, Staphylococcus aureus, Staphylococcus hominis and Acinetobacterium calcoaceticus were studied.

[6] = tested on: Acinetobacterium calcoaceticus; assay: Antibacterial effect, agar incorporation, strain E; type: cell-based; design: key to bacterial growth, strain E: ‘+’ = bacterial growth; ‘−’ = no bacterial growth; settings: for antimicrobial activity: A. calcoaceticus; for bacterial growth, strain E: 24 h (same at 48 h), equivalent to 5% premix
Protocol: as §2

P. acnes = assay: Antibacterial effect, agar incorporation, strain D; type: cell-based, Propionibacterium acnes; design: key to bacterial growth, strain D: ‘+’ = bacterial growth; ‘−’ = no bacterial growth; settings: for bacterial growth, strain D: 24 h (same at 48 h), equivalent to 5% premix
Protocol: as §2

[7] = tested on: Corynebacterium minutissimum; assay: Antibacterial effect, agar incorporation, strain A; type: cell-based; design: key: ‘+’ = bacterial growth; ‘−’ = no bacterial growth; settings: 24 h (same at 48 h), equivalent to 5% premix
Protocol: as §2

Staphylococcus aureus = assay: Antibacterial effect, agar incorporation, strain C; type: cell-based; design: key: ‘+’ = bacterial growth; ‘−’ = no bacterial growth; settings: 24 h (same at 48 h), equivalent to 5% premix
Protocol: as §2

[8] = [c] 0.01%, listed as nordihydroguaiaretic acid

- activity in the test (5α-reductase [1]): no activity
- % inhibition (5α-reductase [1]; [c] 0.01%): 2.1 ± 1.6%
- % inhibition (5α-reductase [1]; [c] 0.04%): 3.7 ± 2.9%
- % inhibition (5α-reductase [1]; [c] 0.1%): 3.0 ± 1.9%
- activity in the test (5α-reductase [2]): no activity
- % inhibition (5α-reductase [2]; [c] 0.01%): 1.2 ± 0.4%
- % inhibition (5α-reductase [2]; [c] 0.04%): 1.0 ± 0.9%
- % inhibition (5α-reductase [2]; [c] 0.1%): 0.9 ± 0.7%
SMILES: CC(Cc1ccc(O)c(O)c1)C(C)Cc1ccc(O)c(O)c1 (stereo not drawn) [NDGA, nordihydroguaiaretic acid]
- inhibition vs. irradiated control (HF) ([3]; 0.01%): 19%
- HF % change (IL-6 vs. tests without UV exposure) ([3]; [c] 0.01%): +356 ± 18%
- HF % change (IL-6 vs. tests without UV exposure) [3, 8]: +356%
- HF % change (IL-6 vs. tests without UV exposure) ([3]; [c] 0.04%): +155 ± 9%
- HF % change (IL-6 vs. tests without UV exposure) ([3]; [c] 0.1%): +87 ± 7%
- inhibition vs. irradiated control (HK) ([4]; 0.01%): 14%
- HK % change (IL-6 vs. tests without UV exposure) ([4]; [c] 0.01%): +388 ± 10%
- HK % change (IL-6 vs. tests without UV exposure) [4, 8]: +388%
- HK % change (IL-6 vs. tests without UV exposure) ([4]; [c] 0.04%): +201 ± 10%
- HK % change (IL-6 vs. tests without UV exposure) ([4]; [c] 0.1%): +91 ± 14%
- % inhibition (quantity of DNA, number of cells) ([5]; [c] 0.04%): 22.3 ± 1.9%
- % inhibition (quantity of DNA, number of cells) ([5]; [c] 0.1%): 29.9 ± 1.7%
- antimicrobial activity (Staphylococcus hominis; S. hominis): selective antimicrobial activity
- antimicrobial activity [6]: selective antimicrobial activity

- % inhibition (5α-reductase [1]; [c] 0.01%): 16.7 ± 1.1%
- % inhibition (5α-reductase [1]; [c] 0.03%): 31.7 ± 2.9%
- % inhibition (5α-reductase [1]; [c] 0.1%): 56.3 ± 2.6%
- % inhibition (5α-reductase [1]; [c] 0.1%, listed as oleanolic acid): 56%
- % inhibition (5α-reductase [2]; [c] 0.01%): 10.9 ± 1.4%
- % inhibition (5α-reductase [2]; [c] 0.03%): 25.6 ± 2.0%
- % inhibition (5α-reductase [2]; [c] 0.1%): 48%
- % inhibition (5α-reductase [2]; [c] 0.1%, listed as Oleanolic acid (obtained from olive tree leaves)): 47.7 ± 3.8%
SMILES: CC1(C)CC[C@]2(C(=O)O)CC[C@]3(C)C(=CC[C@@H]4[C@@]5(C)CC[C@H](O)C(C)(C)[C@@H]5CC[C@]43C)[C@@H]2C1 [Oleanolic acid, oleanolic acid]
- activity in the test, HF [3]: devoid of activity
- HF % change (IL-6 vs. tests without UV exposure) ([3]; [c] 0.01%): +455 ± 14%
- HF % change (IL-6 vs. tests without UV exposure) ([3]; [c] 0.03%): +437 ± 12%
- HF % change (IL-6 vs. tests without UV exposure) ([3]; [c] 0.1%): +441 ± 18%
- activity in the test, HK [4]: devoid of activity
- HK % change (IL-6 vs. tests without UV exposure) ([4]; [c] 0.01%): +461 ± 16%
- HK % change (IL-6 vs. tests without UV exposure) ([4]; [c] 0.03%): +444 ± 14%
- HK % change (IL-6 vs. tests without UV exposure) ([4]; [c] 0.1%): +450 ± 14%
- activity in the test [5]: devoid of activity
- % inhibition (quantity of DNA, number of cells) ([5]; [c] 0.01%): 0.9 ± 1.0%
- % inhibition (quantity of DNA, number of cells) ([5]; [c] 0.03%): 1.1 ± 1.6%
- % inhibition (quantity of DNA, number of cells) ([5]; [c] 0.1%): 0.7 ± 0.7%
- antimicrobial activity (P. acnes; P. acnes): selective antimicrobial activity
- antimicrobial activity [6]: selective antimicrobial activity

SMILES: Oc1cc(Cl)ccc1Oc1ccc(Cl)cc1Cl [Trichlosan]
- bacterial growth, strain A ([7]; 10^4 bacteria/mL): −
- bacterial growth, strain A ([7]; 10^5 bacteria/mL): −
- bacterial growth, strain B (Staphylococcus hominis; 10^4 bacteria/mL): −
- bacterial growth, strain B (Staphylococcus hominis; 10^5 bacteria/mL): −
- bacterial growth, strain C (Staphylococcus aureus; 10^4 bacteria/mL): −
- bacterial growth, strain C (Staphylococcus aureus; 10^5 bacteria/mL): −
- bacterial growth, strain D (P. acnes; 10^4 bacteria/mL): −
- bacterial growth, strain D (P. acnes; 10^5 bacteria/mL): −
- bacterial growth, strain E ([6]; 10^4 bacteria/mL): −
- bacterial growth, strain E ([6]; 10^5 bacteria/mL): −

Reference: patent publication US7182963B2, “Cosmetic and dermopharmaceutical compositions for skin prone to acne” (priority 2001, dated 2007)
